In one experiment the test system is rat arthritis model. Kind of experiment: Paw withdrawal latency (PWL) to radiant heat in rat kaolin/carrageenan knee joint inflammation model. It counts as in vivo. The procedure: All studies followed the guidelines of the Institute Animal Care and Use Committee, in accordance with the guidelines of the National Institutes of Health. All animals were hosted in a room with a constant ambient temperature of 22° C. and 12 hour light/dark cycle with free access to food and water. Eighty-five Sprague-Dawley rats (250–300 grams) total were used in experiments conducted for biochemical, behavioral, and immunocytochemistry studies. […] On Day 2 baseline behavioral testing was followed by infusion of agents for 1.5 hours (pretreatment) prior to induction of knee joint inflammation under brief anesthesia. Behavioral testing was repeated 4 hours after induction of joint inflammation. Anesthetized animals were either transcardially perfused with aldehydes for immunohistochemical studies or fresh, frozen tissues collected for biochemical studies.
A microdialysis fiber was implanted into the spinal dorsal horn of anesthetized rats (sodium pentobarbital, 50 mg/kg) one day prior to the induction of arthritis according to the procedure of Skilling et al. (J. Neurochem., 51:127–132 (1988)), as described in Sluka et al. (Neurosci. Lett., 145:141–144 (1992)). Briefly, a small midline incision was made in the skin over the T12 vertebral level. The vertebrae were cleared of muscle and two 1 millimeter (mm) holes were drilled in the lateral aspect of both sides of the T12 vertebrae to expose the L4 spinal segment. A microdialysis fiber ([…], 45,000 MW cut-off, Hospal, AN69, Hospal Industrie, Meyzieu, France), was passed transversely across the deep dorsal horn and stabilized with dental cement. The microdialysis fiber was then passed through the holes in the vertebrae and transversely through the dorsal horn of the spinal cord. A 2 mm section of the microdialysis fiber lies in the dorsal horn at the level of L3–4 segment. The tubing was coated with epoxy except for a permeable portion passing through the spinal grey matter. The microdialysis fiber was connected to PE20 tubing (Becton Dickinson and Company, San Mateo, Calif.) which was tunneled under the skin to the nape of the neck. Alternatively as a systemic control for drug administration, the microdialysis fiber was implanted only in the subcutaneous tissue over the back muscle and tunneled to the neck. Artificial cerebrospinal fluid (aCSF) was made as described by Sorkin et al. (J. Neurosci. Methods, 23, 131–138 (1988)) and was infused (5 microliters/minute) for 1.5 hours and then the tube was heat-sealed for use on the following day.
Dose response curves were generated for Genistein with animals receiving Genistein spinally at concentration of 0.2 mM (n=3), 0.5 mM (n=3), 1 mM (n=9), and 2 mM (n=3). Animals received Lavendustin A or B spinally at concentrations of 0.1 mM (n=3), 0.5 mM (n=3), and 1 mM (n=5) as a positive and negative control for Genistein. […] Daidzein was tested at a dose of 1 mM (n=3). […] Eight additional animals received the vehicle, 50% DMSO in aCSF, as a control.
An acute inflammatory response restricted to the knee joint can be induced by the injection of 3% kaolin and 3% carrageenan (in sterile saline; 0.1 ml; pH 7.4) into the joint cavity while the animal is briefly anesthetized with sodium methohexital (Brevital, 60 mg/kg, i.p.). Kaolin and carrageenan were obtained from Fisher Scientific, St. Louis, Mo. The knee joint is flexed manually until the rat awakes (approximately 5–10 minutes). In this arthritis model in the awake rat, localized joint swelling, as well as limping and guarding of the limb, are well developed at 4 hours (Sluka et al., Pain, 59, 95–100 (1994)) when behavioral testing begins.
Fifty-five rats were used for behavioral studies. Four hours after induction of the arthritis, the joint is swollen and increased withdrawal responses to radiant heat and spontaneous guarding of the limb were noted. The increased responsiveness to noxious stimuli indicates the presence of secondary hyperalgesia. […]

In the next experiment the test system is NMDA currents. To be noted: patch clamp studies; cited from earlier work.

SMILES strings stand for the structures. “Also recorded” adds a separate entry of the source.

For `O=c1c(-c2ccc(O)cc2)coc2cc(O)cc(O)c12` [Genistein, 5,7-Dihydroxy-3-(4-hydroxyphenyl)-4H-1-benzopyran-4-one; 4′,5,7-trihydroxy-isoflavone], the “effect on baseline PWL” value in the experiment on rat arthritis model (after 1.5 hours infusion, before kaolin/carrageenan) is “did not affect baseline PWL”. Further, in the experiment with rat arthritis model (concentration inside the microdialysis fiber, spinal administration), the “most effective dose in pre-treatment animals” value stood at 1 mM. The “PWL decrease induced by knee joint inflammation” value in the experiment on rat arthritis model (spinal microdialysis pre-treatment 1.5 hours, PWL to radiant heat 4 hours after kaolin/carrageenan) is listed as “significantly (p<0.05 versus 4 hours vehicle group) attenuated the PWL decreases; also recorded: significantly attenuates the inflammation-induced decrease in PWL”. In addition, the “development of secondary hyperalgesia” value with rat arthritis model (spinal microdialysis pre-treatment, 4 hours after induction of arthritis) is “secondary hyperalgesia did not develop”. Further, in the experiment on NMDA currents, the “effect on NMDA currents” value was “decreases NMDA currents”.

The values are drawn from patent US7022484B2, “Methods for treating neuropathological states and neurogenic inflammatory states and methods for identifying compounds useful therein” (Board of Regents, The University of Texas System, priority 2000, dated 2006).
